Measurements from patent publication US20250228954A1, “Designing Antisense Oligonucleotide Delivery Peptides by Interpretable Machine Learning” (Sarepta Therapeutics, Inc., priority 2020, published 2025).
Square brackets hold non-standard residues; d marks the D form. Ends that are not written are not given here. Ahx = NCCCCCC(=O)O; βAla = NCCC(=O)O

Columns and labels:
HeLa 654 cells [1] = assay: Cytotoxicity by gated cell count and propidium iodide staining in flow cytometry; format: cell-based, human; conditions: at the concentrations tested in dose-response, 22 h
Source text: The different modules led to several noticeable trends in the level of cellular fluorescence (FIG. 6). When module 2 was DPV6, the overall construct consistently led to high fluorescence, regardless of which peptides were placed in module 3 and 4. However, when either pVEC or TP10 was placed in module 2, minor cellular fluorescence was observed. A gated cell count was used during flow cytometry as an indirect read-out to control for the toxicity of the compounds. Highly toxic compounds led to a reduction in overall cell count and non-viable cells were gated out based upon propidium iodide staining. In this experiment, it was observed that when the module 3 peptide was the nuclear localization sequence KRVK, lower cell counts were consistently observed.
In the same format as described above, HeLa 654 cells were treated with varying concentrations of Mach 2, 3, 4, and 7 for 22 hours and analyzed by flow cytometry.
(§1) HeLa 654 cells were maintained in MEM supplemented with 10% (v/v) fetal bovine serum (FBS) and 1% (v/v) penicillin-streptomycin at 37° C. and 5% CO2. Eighteen hours prior to treatment, the cells were plated at a density of 5,000 cells per well in a 96-well plate in MEM supplemented with 10% FBS and 1% penicillin-streptomycin. The day of the experiment, the 384 well plate containing the crude reaction mixtures in DMSO was diluted to 100 μM by the addition of 16.8 μL of PBS to the 3.2 μL reaction mixture. Then, each construct was diluted to 5 μM in MEM supplemented with 10% FBS and 1% penicillin-streptomycin. Cells were incubated with each conjugate at a concentration of 5 μM for 22 hours at 37° C. and 5% CO2. Next, the treatment media was aspirated the cells were incubated with Trypsin-EDTA 0.25% for 15 min at 37° C. and 5% CO2, washed 1× with PBS, and resuspended in PBS with 2% FBS and 2 μg/mL propidium iodide. Flow cytometry analysis was carried out on a BD LSRII flow cytometer. Gates were applied to the data to ensure that cells that were highly positive for propidium iodide or had forward/side scatter readings that were sufficiently different from the main cell population were excluded. Each sample was capped at 5,000 gated events.

HeLa 654 cells [2] = assay: HeLa-654 eGFP assay (corrective splicing / exon skipping by PMO IVS2-654); format: cell-based, human; conditions: 5 μM, 22 h; for FOLD OVER PMO: eGFP fluorescence of PMO-peptide conjugate relative to unconjugated PMO
Protocol: With the 36 constructs synthesized, the ability to modulate PMO activity using the modified HeLa cell assay was tested. The HeLa-654 cells were stably transfected to express a nonfluorescent eGFP protein. The eGFP gene is interrupted by a mutant intron from the human β-globin gene (IVS2-654). The insertion alters pre-mRNA splicing to cause retention of a fragment in the mature mRNA that results in a nonfluorescent protein. PMO IVS2-654 base-pairs with the B-globin insertion, modifies mRNA splicing, and thereby leads to expression of fluorescent eGFP.
For treatment, the crude reaction mixture was diluted to 5 μM in media. The concentration of the modular construct was calculated based on the original concentration of the module 1-2 conjugate mixed in the reaction. Using media containing 10% fetal bovine serum (FBS), the cells were treated with each construct for 22 hours, after which the cellular fluorescence was measured by flow cytometry.
From the lists of hundreds of predicted peptide sequences, twenty candidates were selected that varied in length, charge, and predicted activity to synthesize and test. Just as with the PMO-peptide library, the PMO-Mach constructs were first tested for PMO delivery in the HeLa 654 assay at 5 μM in complete media for 22 hours and analyzed by flow cytometry (FIG. 14). Experiments were conducted using three technical triplicates and two or three biological replicates.
as §1
Analysis was conducted using Graphpad Prism 7. For each sample, the mean fluorescence intensity and the number of gated cells was measured (FIGS. 8 and 9) and the intensity multiplied by the cell number was calculated (FIG. 7).

Compound	cytotoxicity as determined by cell count and PI staining (HeLa 654 cells [1])	FOLD OVER PMO (HeLa 654 cells [2])	PMO delivery / activity, result in words (HeLa 654 cells [2])
CSCC[C@H](NC(=O)[C@H](CCCCN)NC(=O)[C@H](CC(C)C)NC(=O)[C@H](CC(N)=O)NC(=O)[C@H](CC(N)=O)NC(=O)[C@H](CCCCN)NC(=O)[C@H](CC(C)C)NC(=O)[C@H](CC(N)=O)NC(=O)[C@H](CCCCN)NC(=O)[C@H](CCCCN)NC(=O)[C@H](CCCCN)NC(=O)[C@H](C)NC(=O)[C@H](CC(N)=O)NC(=O)[C@H](CCCNC(=N)N)NC(=O)[C@H](CC(C)C)NC(=O)[C@@H]1CCCN1C(=O)[C@@H]1CCCN1C(=O)CCCCn1nnc2c1-c1ccccc1N(C(=O)CCCCC(=O)N1C[C@@H](COP(=O)(N(C)C)N3C[C@@H](COP(=O)(N(C)C)N4C[C@@H](COP(=O)(N(C)C)N5C[C@@H](COP(=O)(N(C)C)N6C[C@@H](COP(=O)(N(C)C)N7C[C@@H](COP(=O)(N(C)C)N8C[C@@H](COP(=O)(N(C)C)N9C[C@@H](COP(=O)(N(C)C)N%10C[C@@H](COP(=O)(N(C)C)N%11C[C@@H](COP(=O)(N(C)C)N%12C[C@@H](COP(=O)(N(C)C)N%13C[C@@H](COP(=O)(N(C)C)N%14C[C@@H](COP(=O)(N(C)C)N%15C[C@@H](COP(=O)(N(C)C)N%16C[C@@H](COP(=O)(N(C)C)N%17C[C@@H](COP(=O)(N(C)C)N%18C[C@@H](COP(=O)(N(C)C)N%19C[C@@H](COP(=O)(N(C)C)N%20CCN(C(=O)OCCOCCOCCO)CC%20)O[C@@H](n%20cnc%21c(=O)[nH]c(N)nc%21%20)C%19)O[C@@H](n%19ccc(N)nc%19=O)C%18)O[C@@H](n%18cc(C)c(=O)[nH]c%18=O)C%17)O[C@@H](n%17cnc%18c(N)ncnc%18%17)C%16)O[C@@H](n%16cc(C)c(=O)[nH]c%16=O)C%15)O[C@@H](n%15cc(C)c(=O)[nH]c%15=O)C%14)O[C@@H](n%14cnc%15c(N)ncnc%15%14)C%13)O[C@@H](n%13ccc(N)nc%13=O)C%12)O[C@@H](n%12ccc(N)nc%12=O)C%11)O[C@@H](n%11cc(C)c(=O)[nH]c%11=O)C%10)O[C@@H](n%10cc(C)c(=O)[nH]c%10=O)C9)O[C@@H](n9cnc%10c(N)ncnc%109)C8)O[C@@H](n8cnc9c(N)ncnc98)C7)O[C@@H](n7ccc(N)nc7=O)C6)O[C@@H](n6ccc(N)nc6=O)C5)O[C@@H](n5ccc(N)nc5=O)C4)O[C@@H](n4cnc5c(N)ncnc54)C3)O[C@@H](n3cnc4c(=O)[nH]c(N)nc43)C1)Cc1ccccc1-2)C(=O)N[C@@H](CC(=O)O)C(=O)N1CCC[C@H]1C(=O)N[C@@H](CCCCN)C(=O)N[C@@H](Cc1ccccc1)C(=O)N[C@H](C(=O)N[C@@H](CCCCN)C(=O)N[C@@H](CCCCN)C(=O)N[C@H](C(=O)N[C@@H](CCCCN)C(=O)N[C@@H](CCC(N)=O)C(=O)NCC(=O)N[C@@H](C)C(=O)N[C@@H](CC(C)C)C(=O)N[C@@H](CCCCN)C(=O)N[C@@H](CC(C)C)C(=O)N[C@@H](CC(N)=O)C(=O)N[C@@H](CCCNC(=N)N)C(=O)N[C@@H](CCCNC(=N)N)C(=O)N[C@@H](CCCCN)C(=O)N[C@@H](CCCCN)C(=O)N[C@@H](CC(N)=O)C(=O)N[C@@H](CCCNC(=N)N)C(=O)NCC(=O)N1CCC[C@H]1C(=O)N[C@@H](CCCCN)C(=O)NCC(=O)N1CCC[C@H]1C(=O)NCCCCCC(=O)N[C@@H](CCCCN)C(=O)N[C@@H](Cc1c[nH]cn1)C(=O)N[C@@H](Cc1c[nH]c2ccccc12)C(=O)N[C@H](C(=O)N[C@H](C(N)=O)[C@@H](C)O)[C@@H](C)O)C(C)C)[C@@H](C)O (stereo partly drawn) [MACH 2]	no cytotoxicity	27	
CC[C@H](C)[C@H](NC(=O)[C@H](CO)NC(=O)[C@H](CC(C)C)NC(=O)[C@H](CCCCN)NC(=O)CNC(=O)[C@H](CCCCN)NC(=O)[C@@H]1CCCN1C(=O)[C@H](Cc1c[nH]c2ccccc12)NC(=O)[C@H](CC(N)=O)NC(=O)[C@H](CCCCN)NC(=O)[C@H](CCCCN)NC(=O)[C@H](CC(N)=O)NC(=O)[C@H](C)NC(=O)[C@H](CCCCN)NC(=O)[C@H](CO)NC(=O)[C@H](CCCCN)NC(=O)[C@H](CCCNC(=N)N)NC(=O)[C@H](CCCCN)NC(=O)[C@H](CCCCN)NC(=O)[C@H](CCC(N)=O)NC(=O)CCCCn1nnc2c1-c1ccccc1N(C(=O)CCCCC(=O)N1C[C@@H](COP(=O)(N(C)C)N3C[C@@H](COP(=O)(N(C)C)N4C[C@@H](COP(=O)(N(C)C)N5C[C@@H](COP(=O)(N(C)C)N6C[C@@H](COP(=O)(N(C)C)N7C[C@@H](COP(=O)(N(C)C)N8C[C@@H](COP(=O)(N(C)C)N9C[C@@H](COP(=O)(N(C)C)N%10C[C@@H](COP(=O)(N(C)C)N%11C[C@@H](COP(=O)(N(C)C)N%12C[C@@H](COP(=O)(N(C)C)N%13C[C@@H](COP(=O)(N(C)C)N%14C[C@@H](COP(=O)(N(C)C)N%15C[C@@H](COP(=O)(N(C)C)N%16C[C@@H](COP(=O)(N(C)C)N%17C[C@@H](COP(=O)(N(C)C)N%18C[C@@H](COP(=O)(N(C)C)N%19C[C@@H](COP(=O)(N(C)C)N%20CCN(C(=O)OCCOCCOCCO)CC%20)O[C@@H](n%20cnc%21c(=O)[nH]c(N)nc%21%20)C%19)O[C@@H](n%19ccc(N)nc%19=O)C%18)O[C@@H](n%18cc(C)c(=O)[nH]c%18=O)C%17)O[C@@H](n%17cnc%18c(N)ncnc%18%17)C%16)O[C@@H](n%16cc(C)c(=O)[nH]c%16=O)C%15)O[C@@H](n%15cc(C)c(=O)[nH]c%15=O)C%14)O[C@@H](n%14cnc%15c(N)ncnc%15%14)C%13)O[C@@H](n%13ccc(N)nc%13=O)C%12)O[C@@H](n%12ccc(N)nc%12=O)C%11)O[C@@H](n%11cc(C)c(=O)[nH]c%11=O)C%10)O[C@@H](n%10cc(C)c(=O)[nH]c%10=O)C9)O[C@@H](n9cnc%10c(N)ncnc%109)C8)O[C@@H](n8cnc9c(N)ncnc98)C7)O[C@@H](n7ccc(N)nc7=O)C6)O[C@@H](n6ccc(N)nc6=O)C5)O[C@@H](n5ccc(N)nc5=O)C4)O[C@@H](n4cnc5c(N)ncnc54)C3)O[C@@H](n3cnc4c(=O)[nH]c(N)nc43)C1)Cc1ccccc1-2)C(=O)N[C@@H](Cc1c[nH]cn1)C(=O)N[C@@H](C)C(=O)N[C@@H](CCCCN)C(=O)N[C@@H](CC(=O)O)C(=O)N[C@@H](Cc1ccc(O)cc1)C(=O)N[C@@H](CCCCN)C(=O)N[C@@H](CCC(N)=O)C(=O)NCC(=O)N1CCC[C@H]1C(=O)N[C@@H](CCCCN)C(=O)N[C@@H](C)C(=O)N[C@@H](CCCCN)C(=O)NCCCCCC(=O)N[C@@H](CCCNC(=N)N)C(=O)N[C@@H](CCCCN)C(=O)N[C@@H](CCC(N)=O)C(=O)N[C@@H](CCCNC(=N)N)C(=O)NCCCCCC(=O)N[C@@H](CCCNC(=N)N)C(N)=O (stereo partly drawn) [MACH 3]	no cytotoxicity	38	
MACH 6: PMO IVS2-654 conjugate of peptide ALKBRSAAKAVRWPKKAIKQASKKVAKYALKXXRKKKAASKXWLQLHWPRW (SEQ ID NO: 62) (ALK[βAla]RSAAKAVRWPKKAIKQASKKVAKYALK[Ahx][Ahx]RKKKAASK[Ahx]WLQLHWPRW; also: PMO IVS2-654 conjugate)		43	
MACH 11: PMO IVS2-654 conjugate of peptide TSNLKLHLAPPVKKKALKKPLYKAKKKKKVVSPTWXTDQEW (SEQ ID NO: 66), designed to have poor activity (TSNLKLHLAPPVKKKALKKPLYKAKKKKKVVSPTW[Ahx]TDQEW; also: PMO IVS2-654 conjugate)		4	did not significantly improve PMO delivery
P1: PMO IVS2-654 conjugate of peptide KXKKQQGKKKHR (SEQ ID NO: 69) (K[Ahx]KKQQGKKKHR; also: PMO IVS2-654 conjugate)		2.9	
P11: PMO IVS2-654 conjugate of peptide KKKKKQCKKKHRWPKXXC (SEQ ID NO: 79) (KKKKKQCKKKHRWPK[Ahx][Ahx]C; cysteine pairing not given here; also: PMO IVS2-654 conjugate)		12.9	
